In publication PMC7812667 (ACS Medicinal Chemistry Letters, 2020):

Experiment: LogD shake-flask, octanol and water
Format: physicochemical
Details: pH 7.4

With c1ccc(Cc2c[nH]c3ncc(-c4cnn(C5CCNCC5)c4)cc23)cc1 [Compound 6] the “reduction in logD (versus compound 5)” value was “over 1.5 log units”.
